In one experiment the target is rat TAAR1 (Rattus norvegicus (Rat), UniProt Q923Y9). As to the kind of experiment: Radioligand binding assay on rat TAAR1. Particulars: rat TAAR1 (second value of the cell); membranes of HEK-293 cells stably expressing rat TAAR1; read-out: Ki (μM) mouse/rat. How it is done:
(§1) Construction of TAAR Expression Plasmids and Stably Transfected Cell Lines
(§2) For the construction of expression plasmids the coding sequences of human, rat and mouse TAAR 1 were amplified from genomic DNA essentially as described by Lindemann et al.. The Expand High Fidelity PCR System (Roche Diagnostics) was used with 1.5 mM Mg^2+ and purified PCR products were cloned into pCR2.1-TOPO cloning vector (Invitrogen) following the instructions of the manufacturer. PCR products were subcloned into the pIRESneo2 vector (BD Clontech, Palo Alto, Calif.), and expression vectors were sequence verified before introduction in cell lines.
(§3) HEK293 cells (ATCC # CRL-1573) were cultured essentially as described by Lindemann et al. (2005). For the generation of stably transfected cell lines HEK293 cells were transfected with the pIRESneo2 expression plasmids containing the TAAR coding sequences (described above) with Lipofectamine 2000 (Invitrogen) according to the instructions of the manufacturer, and 24 hrs post transfection the culture medium was supplemented with 1 mg/ml G418 (Sigma, Buchs, Switzerland). After a culture period of about 10 d clones were isolated, expanded and tested for responsiveness to trace amines (all compounds purchased from Sigma) with the cAMP Biotrak Enzyme immunoassay (EIA) System (Amersham) following the non-acetylation EIA procedure provided by the manufacturer.
Radioligand Binding Assay on Rat TAAR1
(§4) Membrane Preparation and Radioligand Binding.
HEK-293 cells stably expressing rat TAAR1 were maintained at 37° C. and 5% CO2 in DMEM high glucose medium, containing fetal calf serum (10%, heat inactivated for 30 min at 56° C.), penicillin/streptomycin (1%), and 375 μg/ml geneticin (Gibco). Cells were released from culture flasks using trypsin/EDTA, harvested, washed twice with ice-cold PBS (without Ca^2+ and Mg^2+), pelleted at 1,000 rpm for 5 min at 4° C., frozen and stored at −80° C. Frozen pellets were suspended in 20 ml HEPES-NaOH (20 mM, pH 7.4) containing 10 mM EDTA and homogenized with a Polytron (PT 6000, Kinematica) at 14,000 rpm for 20 s. The homogenate was centrifuged at 48,000×g for 30 min at 4° C. Subsequently, the supernatant was removed and discarded, and the pellet resuspended in 20 ml HEPES-NaOH (20 mM, pH 7.4) containing 0.1 mM EDTA using the Polytron (20 s at 14,000 rpm). This procedure was repeated and the final pellet resuspended in HEPES-NaOH containing 0.1 mM EDTA and homogenized using the Polytron. Typically, aliquots of 2 ml membrane portions were stored at −80° C. With each new membrane batch the dissociation constant (Kd) was determined via a saturation curve. […] Nonspecific binding was defined as the amount of ^3[H]-(S)-4-[(ethyl-phenyl-amino)-methyl]-4,5-dihydro-oxazol-2-ylamine bound in the presence of 10 μM unlabeled ligand. All compounds were tested at a broad range of concentrations ([…]) in duplicates. The test compounds (20 […]μl/well) were transferred into a 96 deep well plate (TreffLab), and 180 μl of HEPES-NaOH (20 mM, pH 7.4) containing MgCl2 (10 mM) and CaCl2 (2 mM) (binding buffer), 300 μl of the radioligand ^3[H]-(S)-4-[(ethyl-phenyl-amino)-methyl]-4,5-dihydro-oxazol-2-ylamine at a concentration of 3.3×Kd in nM and 500 μl of the membranes (resuspended at 50 μg protein per ml) added. The 96 deep well plates were incubated for 1 hr at 4° C. Incubations were terminated by rapid filtration through Unifilter-96 plates (Packard Instrument Company) and glass filters GF/C (Perkin Elmer) presoaked for 1 hr in polyethylenimine (0.3%) and washed 3 times with 1 ml of cold binding buffer. After addition of 45 μl of Microscint 40 (PerkinElmer) the Unifilter-96 plate was sealed and after 1 hr the ratioactivity counted using a TopCount Microplate Scintillation Counter (Packard Instrument Company).

The target in another experiment is mouse TAAR1 (Mus musculus (Mouse), UniProt Q923Y8). Briefly: Radioligand binding assay on mouse TAAR1. Particulars: mouse TAAR1 (first value of the cell); membranes of HEK-293 cells stably expressing mouse TAAR1; read-out: Ki (μM) mouse/rat. How it is done:
as §1, §2, §3
Radioligand Binding Assay on Mouse TAAR1
as §4
HEK-293 cells stably expressing mouse TAAR1 were maintained at 37° C. and 5% CO2 in DMEM high glucose medium, containing fetal calf serum (10%, heat inactivated for 30 min at 56° C.), penicillin/streptomycin (1%), and 375 μg/ml geneticin (Gibco). Cells were released from culture flasks using trypsin/EDTA, harvested, washed twice with ice-cold PBS (without Ca^2+and Mg^2+), pelleted at 1,000 rpm for 5 min at 4° C., frozen and stored at −80° C. Frozen pellets were suspended in 20 ml HEPES-NaOH (20 mM, pH 7.4) containing 10 mM EDTA and homogenized with a Polytron (PT 6000, Kinematica) at 14,000 rpm for 20 s. The homogenate was centrifuged at 48,000×g for 30 min at 4° C. Subsequently, the supernatant was removed and discarded, and the pellet resuspended in 20 ml HEPES-NaOH (20 mM, pH 7.4) containing 0.1 mM EDTA using the Polytron (20 s at 14,000 rpm). This procedure was repeated and the final pellet resuspended in HEPES-NaOH containing 0.1 mM EDTA and homogenized using the Polytron. Typically, aliquots of 2 ml membrane portions were stored at −80° C. With each new membrane batch the dissociation constant (Kd) was determined via a saturation curve. The TAAR1 radioligand ^3[H]-(S)-4-[(ethyl-phenyl-amino)-methyl]-4,5-dihydro-oxazol-2-ylamine (described in WO 2008/098857) was used at a concentration equal to the calculated Kd value, that was usually around 0.7 nM, resulting in the binding of approximately 0.5% of the radioligand and a specific binding representing approximately 70% of the total binding. Nonspecific binding was defined as the amount of ^3[H]-(S)-4-[(ethyl-phenyl-amino)-methyl]-4,5-dihydro-oxazol-2-ylamine bound in the presence of 10 μM unlabeled ligand. All compounds were tested at a broad range of concentrations ([…]) in duplicates. The test compounds (20 […]μl/well) were transferred into a 96 deep well plate (TreffLab), and 180 μl of HEPES-NaOH (20 mM, pH 7.4) containing MgCl2 (10 mM) and CaCl2 (2 mM) (binding buffer), 300 μl of the radioligand ^3[H]-(S)-4-[(ethyl-phenyl-amino)-methyl]-4,5-dihydro-oxazol-2-ylamine at a concentration of 3.3×Kd in nM and 500 μl of the membranes (resuspended at […]) added. The 96 deep well plates were incubated for 1 hr at 4° C. Incubations were terminated by rapid filtration through Unifilter-96 plates (Packard Instrument Company) and glass filters GF/C (Perkin Elmer) presoaked for 1 hr in polyethylenimine (0.3%) and washed 3 times with 1 ml of cold binding buffer. […]

We go through 13 compounds from patent US9663530B2, “5-oxa-2-azabicyclo[2.2.2]OCTAN-4-yl and 5-oxa-2-azabicyclo[2.2.1]heptan-4-yl derivatives” (Hoffmann-La Roche Inc., priority 2014, dated 2017).

Sequence of rat TAAR1 (Q923Y9 whole entry): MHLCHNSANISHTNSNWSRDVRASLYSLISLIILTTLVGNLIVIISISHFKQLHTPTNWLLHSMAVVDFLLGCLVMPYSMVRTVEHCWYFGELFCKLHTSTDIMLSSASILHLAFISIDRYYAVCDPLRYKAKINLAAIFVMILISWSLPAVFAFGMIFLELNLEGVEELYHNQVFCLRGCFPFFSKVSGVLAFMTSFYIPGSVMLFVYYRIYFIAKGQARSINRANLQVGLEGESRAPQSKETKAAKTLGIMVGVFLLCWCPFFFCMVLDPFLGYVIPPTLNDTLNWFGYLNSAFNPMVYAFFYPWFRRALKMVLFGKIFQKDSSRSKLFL
Sequence of mouse TAAR1 (Q923Y8 whole entry): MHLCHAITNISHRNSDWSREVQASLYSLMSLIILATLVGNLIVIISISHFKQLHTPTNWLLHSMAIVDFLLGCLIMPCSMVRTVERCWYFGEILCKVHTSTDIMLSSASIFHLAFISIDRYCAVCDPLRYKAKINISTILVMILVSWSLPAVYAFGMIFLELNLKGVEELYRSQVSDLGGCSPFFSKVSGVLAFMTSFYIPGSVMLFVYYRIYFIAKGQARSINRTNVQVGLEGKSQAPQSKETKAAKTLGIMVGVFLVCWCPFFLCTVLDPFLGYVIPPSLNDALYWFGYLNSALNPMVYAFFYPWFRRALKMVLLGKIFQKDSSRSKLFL

For the compound `FC(F)(F)c1ccc(Nc2ccc(C[C@@]34CN[C@@H](CO3)C4)cc2)nc1` [Example 63, N-[4-[[(1R,4R)-5-Oxa-2-azabicyclo[2.2.1]heptan-4-yl]methyl]phenyl]-5-(trifluoromethyl)pyridin-2-amine], the Ki at rat TAAR1 was 0.141 µM; on mouse TAAR1, 0.0107 µM.

For `O=C(Nc1ccc(Cl)cc1)Nc1ccc(C[C@@]23CN[C@@H](CO2)C3)cc1` [Example 23, 1-(4-Chlorophenyl)-3-[4-[[(1R,4R)-5-oxa-2-azabicyclo[2.2.1]heptan-4-yl]methyl]phenyl]urea], the Ki on rat TAAR1 turned out to be 0.0375 µM; at mouse TAAR1 it was 0.0137 µM.

As for `FC(F)(F)c1nccc(Nc2ccc([C@]34CN[C@H](CO3)C4)cc2)n1` [Example 62, N-[4-[(1S,4R)-5-Oxa-2-azabicyclo[2.2.1]heptan-4-yl]phenyl]-2-(trifluoromethyl)pyrimidin-4-amine], the Ki stood at 0.233 µM at rat TAAR1 and 0.144 µM on mouse TAAR1.

For the compound `CCCc1n[nH]c(C(=O)Nc2ccc(C34CCC(CO3)NC4)cc2)c1Cl` (racemic) [Example 34, (RS)-4-Chloro-N-[4-(5-oxa-2-azabicyclo[2.2.2]octan-4-yl)phenyl]-3-propyl-1H-pyrazole-5-carboxamide], the results for the Ki on rat TAAR1 and on mouse TAAR1 were 0.0973 µM and 0.0135 µM, respectively.

Take `O=C(Nc1ccc(C[C@@]23CN[C@@H](CO2)C3)cc1)c1ccc(Cl)cc1` [Example 21, 4-Chloro-N-[4-[[(1R,4R)-5-oxa-2-azabicyclo[2.2.1]heptan-4-yl]methyl]phenyl]benzamide]: the results for the Ki on rat TAAR1 and at mouse TAAR1 were 0.0626 µM and 0.003 µM, respectively.

For the compound `Clc1ccc(Nc2ccc(C34CCC(CO3)NC4)cc2)nc1` (racemic) [Example 3, (RS)-5-Chloro-N-[4-(5-oxa-2-azabicyclo[2.2.2]octan-4-yl)phenyl]pyridin-2-amine], the Ki at rat TAAR1 turned out to be 2.46 µM; at mouse TAAR1 it was 0.0141 µM.

With `CC(C)c1cc(C(=O)Nc2ccc(C[C@]34CN[C@H](CO3)C4)cc2)[nH]n1` [Example 38, 3-Isopropyl-N-[4-[[(1S,4S)-5-oxa-2-azabicyclo[2.2.1]heptan-4-yl]methyl]phenyl]-1H-pyrazole-5-carboxamide], the values for the Ki on rat TAAR1 and on mouse TAAR1 were 0.441 µM and 10.1 µM, respectively.

`O=C(Nc1ccc(C[C@@]23CN[C@@H](CO2)C3)cc1)c1ccc(OCC2CC2)cc1` [Example 45, 4-(Cyclopropylmethoxy)-N-[4-[[(1R,4R)-5-oxa-2-azabicyclo[2.2.1]heptan-4-yl]methyl]phenyl]benzamide]: the Ki at rat TAAR1 came to 0.0212 µM; on mouse TAAR1 it was 0.0061 µM.

As to `O=C(Nc1ccc(C23CCC(CO2)NC3)cc1)c1cnc(C2CC2)nc1` (racemic) [Example 14, (RS)-2-Cyclopropyl-N-[4-(5-oxa-2-azabicyclo[2.2.2]octan-4-yl)phenyl]pyrimidine-5-carboxamide], the Ki at rat TAAR1 was more than 10 µM; on mouse TAAR1 it was 0.136 µM.

As for `O=C(Nc1ccc([C@@]23CN[C@@H](CO2)C3)cc1)c1cccc(Cl)c1` [Example 55, 3-Chloro-N-[4-[(1R,4S)-5-oxa-2-azabicyclo[2.2.1]heptan-4-yl]phenyl]benzamide], the Ki amounted to 0.964 µM on rat TAAR1 and 0.0036 µM at mouse TAAR1.

As to `O=C(Nc1ccc(Cl)cc1)Nc1ccc(C[C@]23CN[C@H](CO2)C3)cc1` [Example 1, 1-(4-Chlorophenyl)-3-[4-[[(1S,4S)-5-oxa-2-azabicyclo[2.2.1]heptan-4-yl]methyl]phenyl]urea], the Ki on rat TAAR1 came to 1150 µM; on mouse TAAR1, 1.82 µM.

Turning to `CCCc1n[nH]c(C(=O)Nc2ccc(C[C@@]34CN[C@@H](CO3)C4)cc2)c1Cl` [Example 41, 4-Chloro-N-[4-[[(1R,4R)-5-oxa-2-azabicyclo[2.2.1]heptan-4-yl]methyl]phenyl]-3-propyl-1H-pyrazole-5-carboxamide], the Ki came to 0.066 µM on rat TAAR1 and 0.0183 µM on mouse TAAR1.

As for `O=C(Nc1ccc([C@]23CN[C@H](CO2)C3)cc1)c1ccc(Cl)cc1` [Example 58, 4-Chloro-N-[4-[(1S,4R)-5-oxa-2-azabicyclo[2.2.1]heptan-4-yl]phenyl]benzamide], the Ki on rat TAAR1 was 0.071 µM; on mouse TAAR1, 0.016 µM.
